Results on 3 molecules are retold here after patent US20250136722A1, “CYTOTOXICITY TARGETING CHIMERAS” (GLAXOSMITHKLINE INTELLECTUAL PROPERTY DEVELOPMENT LIMITED, priority 2021, published 2025).

In one series the test system is CCR2+ expressing cells. The series can be described thus: Alternative dosing strategy of ARM compound to anti-cotinine antibody, blood concentration and CCR2+ cell depletion (Example 206). The format is in vivo. To be noted: co-dosing vs sequential dosing with anti-cotinine antibody, intravenously. An excerpt:
FIGS. 3A-3B: Alternative dosing strategy of small molecule ARM compound to anti-cotinine antibody, as described in Example 206, with anti-cotinine antibody and small molecule ARM compound (Example 1) co-dosed or sequentially dosed intravenously;
FIG. 5: Alternative dosing strategy of small molecule ARM compound to anti-cotinine antibody, as described in Example 206, with anti-cotinine antibody administered intravenously and ARM compound (Example 1) administered subcutaneously following a 2-hour delay from antibody dosing at various molar ratios of small molecule ARM: antibody; data shown is blood concentration of small molecule ARM compound at various timepoints following administration.

For series [1], the system named is endogenous target monocytes in human PBMC. The series can be described thus: PBMC ex vivo monocyte depletion flow cytometry assay (Example 200). To be noted: with anti-cotinine antibody SEQ ID NO: 11/12, 18-24 hours, read-out: Ex Vivo Depletion Assay pEC50 (converted). The format is cell-based. Here is the method: A human PBMC (peripheral blood mononuclear cells) monocyte depletion flow cytometry assay was developed to screen compounds in a 384-well plate format. This assay incorporated endogenous natural killer cells to deplete endogenous target monocytes.
To screen compounds in the human PBMC monocyte depletion flow cytometry assay, 11-point dose-response curves were made from 1 mM stocks in neat DMSO by serially diluting an ARM compound of Formula (I) four-fold into a 384-well plate row-wise. These serially diluted compounds were then stamped into a flat bottom polypropylene 384-well plate (Greiner Bio-One) at 100 nL/well. Fifty microliters of 30 μg/mL anti-cotinine antibody having a heavy chain sequence of SEQ ID NO: 11 and a light chain sequence of SEQ ID NO: 12 (rabbit variable region with human IgG1 Fc domain containing a DE mutation (S239D/1332E)) that had been diluted in assay medium (RPMI 1640 (Gibco) containing 10% fetal bovine serum (Gibco), 1% Glutamax (Gibco) and 1% sodium pyruvate (Corning) was added to the wells of the plate. The plate was centrifuged for 1 min at 500 rpm (revolutions per minute) and then shaken for 5 min at room temperature. The plate was incubated for 15 minutes at 37° C./5% CO2.
Frozen PBMC cells (HemaCare BioResearch) were thawed and centrifuged at 1,200 rpm for 4 minutes. The cells were diluted to a cell density of 2×10^6 cells/mL in assay medium. Fifty microliters of the diluted cells were added to the wells of the plate. The plate was centrifuged for 1 min at 500 rpm and incubated for 18-24 hours at 37° C./5% CO2.
After 18-24 hours incubation, 2 μL of 6.25 μg human FC block (BD Pharmingen) that was diluted in assay medium was added to the wells of the plate. The plate was centrifuged for 1 minute at 500 rpm and then incubated at room temperature for 15 minutes. Five microliters of 750 nM Helix NP NIR (Biolegend) that had been diluted in assay medium was added to the wells of the plate. Nine microliters of antibody cocktail containing 1/5 diluted fluorescein isothiocyanate (FITC) labeled anti-CD45 antibody (Beckman Coulter), PC7 labeled anti-CD14 antibody (Beckman Coulter) and phycoerythrin (PE) anti-CD4 antibody (Beckman Coulter) was then added to the wells of the plate. The plate was centrifuged for 1 min at 500 rpm and incubated for 30 minutes at 4-8° C. Samples from the plate were run on BD FACS Canto II flow cytometer and data was analyzed using FlowJo software.
ARMs compounds of Formula (I) of the invention were tested for the ability to deplete monocytes in the above assay in one or more experimental runs and the results are shown in Table 3 below. Potency of the compounds of the invention is reported as a pEC50 value. The pEC50 value is the negative log of the EC50 value, wherein the EC50 value is the half maximal effective concentration measured in molar (M). For compounds tested in more than one experimental run, the pEC50 value is reported as an average or as the individual values measured
(In general: Flow cytometry measures light scatter and fluorescence of single cells or particles in a stream.)

For `CC(C)N(C)[C@@H]1CC[C@H](N2CC[C@H](Nc3ncnc4ccc(C(F)(F)F)cc34)C2=O)[C@H](NC(=O)[C@H]2CC[C@H](NC(=O)CCCO[C@H]3CC[C@H](OCCNC(=O)[C@H]4CC(=O)N(C)[C@@H]4c4cccnc4)CC3)CC2)C1` [Example 1, (2S,3S)-N-(2-(((1R,4S)-4-(4-(((1R,4R)-4-(((1R,2S,5R)-5-(Isopropyl(methyl)amino)-2-((S)-2-oxo-3-((6-(trifluoromethyl)quinazolin-4-yl)amino)pyrrolidin-1-yl)cyclohexyl)carbamoyl)cyclohexyl)amino)-4-oxobutoxy)cyclohexyl)oxy)ethyl)-1-methyl-5-oxo-2-(pyridin-3-yl)pyrrolidine-3-carboxamide], in the series with CCR2+ expressing cells, the “PD (percent depletion of CCR2+ expressing cells)” value was “unchanged” and the “PK (blood concentration of small molecule ARM compound)” value is given as “unchanged”. With `CN1C(=O)C[C@H](C(=O)NCCOCCOCCOCCOCCOCCC(=O)N[C@@H]2C[C@H](NC(C)(C)C)CC[C@@H]2N2CC[C@H](Nc3ncnc4ccc(C(F)(F)F)cc34)C2=O)[C@H]1c1cccnc1` [Example 37], the EC50 in series [1] is 5.01 nM. Turning to `CN1C(=O)C[C@H](C(=O)NCCOCCOCCOCCOCCOCCOCCC(=O)N[C@@H]2C[C@H](NC(C)(C)C)CC[C@@H]2N2CC[C@H](Nc3ncnc4ccc(C(F)(F)F)cc34)C2=O)[C@H]1c1cccnc1` [Example 38], in series [1], the EC50 was 1.58 nM.
